Measurements published in publication PMC10605077, “In Vitro and In Silico Antiviral Activity of Di-Halogenated Compounds Derived from L-Tyrosine against Human Immunodeficiency Virus 1 (HIV-1)” (Current Issues in Molecular Biology, 2023).

System: HIV-GFP-VSV-G reporter virus
Test: microbe, parasite or virus in culture
Type: cell-based, HIV-1
Settings: Human immunodeficiency virus 1, TZM-bl, read-out: percentage inhibition of HIV-GFP-VSV-G replication

**Q.** For `COc1c(Cl)cc(C[C@@H](C(=O)O)N(C)C)cc1Cl` [TODC-2M], which inhibition at 150 µM is on record?
**A.** 29%
